ChEMBL document CHEMBL4346657, “Anticancer activity, dual prooxidant/antioxidant effect and apoptosis induction profile of new bichalcophene-5-carboxamidines” (Eur J Med Chem, 2019)
The source made the active and inactive calls. No cut-off for these calls is given here.

What was measured:
[1] = Haemolytic activity in human erythrocytes assessed as induction of hemolysis at 10 mM after 30 mins relative to H202; assay type: cell-based, Erythrocyte; settings: read-out: Activity
TK-10 = assay: Antiproliferative activity against human TK10 cells assessed as growth inhibition after 48 hrs by sulforhodamine B assay; assay type: functional; settings: TK-10, 48 h
SK-OV-3 = assay: Antiproliferative activity against human SKOV3 cells assessed as growth inhibition after 48 hrs by sulforhodamine B assay; assay type: functional; settings: SK-OV-3, 48 h
EKVX = assay: Antiproliferative activity against human EKVX cells assessed as growth inhibition after 48 hrs by sulforhodamine B assay; assay type: functional
SNB-75 = assay: Antiproliferative activity against human SNB75 cells assessed as growth inhibition after 48 hrs by sulforhodamine B assay; assay type: functional; settings: SNB-75, 48 h
MOLT-4 = assay: Antiproliferative activity against human MOLT4 cells assessed as growth inhibition after 48 hrs by sulforhodamine B assay; assay type: functional; settings: MOLT-4, 48 h
OVCAR-3 = assay: Antiproliferative activity against human OVCAR3 cells assessed as growth inhibition after 48 hrs by sulforhodamine B assay; assay type: functional; settings: OVCAR-3, 48 h
HOP-62 = assay: Antiproliferative activity against human HOP62 cells assessed as growth inhibition after 48 hrs by sulforhodamine B assay; assay type: functional; settings: HOP-62, 48 h
DU-145 = assay: Antiproliferative activity against human DU145 cells assessed as growth inhibition after 48 hrs by sulforhodamine B assay; assay type: functional; settings: DU-145, 48 h
786-0 = assay: Antiproliferative activity against human 786-0 cells assessed as growth inhibition after 48 hrs by sulforhodamine B assay; assay type: functional; settings: 786-0, 48 h
SF-539 = assay: Antiproliferative activity against human SF539 cells assessed as growth inhibition after 48 hrs by sulforhodamine B assay; assay type: functional; settings: SF-539, 48 h
SN12C = assay: Antiproliferative activity against human SN12C cells assessed as growth inhibition after 48 hrs by sulforhodamine B assay; assay type: functional
OVCAR-8 = assay: Antiproliferative activity against human OVCAR8 cells assessed as growth inhibition after 48 hrs by sulforhodamine B assay; assay type: functional; settings: OVCAR-8, 48 h
OVCAR-5 = assay: Antiproliferative activity against human OVCAR5 cells assessed as growth inhibition after 48 hrs by sulforhodamine B assay; assay type: functional; settings: OVCAR-5, 48 h
OVCAR-4 = assay: Antiproliferative activity against human OVCAR4 cells assessed as growth inhibition after 48 hrs by sulforhodamine B assay; assay type: functional; settings: OVCAR-4, 48 h
[2] = Antioxidant activity assessed as DPPH radical scavenging activity incubated in dark for 30 mins by spectrophotometric method relative to control; assay type: functional; set-up: concentration or dose not given beside the values
[3] = Antioxidant activity assessed as ABTS radical scavenging activity by spectrophotometric analysis relative to control; assay type: functional; set-up: concentration or dose not given beside the values; settings: dose or concentration not given here
LOX IMVI = assay: Antiproliferative activity against human LOXIMVI cells assessed as growth inhibition after 48 hrs by sulforhodamine B assay; assay type: functional
NCI-H460 = assay: Antiproliferative activity against human NCI-H460 cells assessed as growth inhibition after 48 hrs by sulforhodamine B assay; assay type: functional; settings: NCI-H460, 48 h
UACC-257 = assay: Antiproliferative activity against human UACC257 cells assessed as growth inhibition after 48 hrs by sulforhodamine B assay; assay type: functional; settings: UACC-257, 48 h
HCT-116 [4] = assay: Induction of apoptosis in human HCT116 cells assessed as increase in caspase 3 mRNA expression at 100 nM after 6 hrs hrs by SYBR green dye-based qRT-PCR analysis relative to control; assay type: functional
HCT-15 = assay: Antiproliferative activity against human HCT15 cells assessed as growth inhibition after 48 hrs by sulforhodamine B assay; assay type: functional; settings: HCT-15, 48 h
CAKI-1 = assay: Antiproliferative activity against human CAKI-1 cells assessed as growth inhibition after 48 hrs by sulforhodamine B assay; assay type: functional; settings: CAKI-1, 48 h
[5] = Pro-oxidant activity assessed as increase in bleomycin-Fe2+ induced calf thymus DNA damage at 2 mM after 1 hr by thiobarbituric acid based absorbance analysis
[6] = Haemolytic activity in human erythrocytes assessed as induction of hemolysis at 5 mM after 30 mins relative to H202; assay type: cell-based, Erythrocyte; settings: read-out: Activity
BT-549 = assay: Antiproliferative activity against human BT549 cells assessed as growth inhibition after 48 hrs by sulforhodamine B assay; assay type: functional; settings: BT-549, 48 h
SF-268 = assay: Antiproliferative activity against human SF268 cells assessed as growth inhibition after 48 hrs by sulforhodamine B assay; assay type: functional; settings: SF-268, 48 h
RXF 393 = assay: Antiproliferative activity against human RXF393 cells assessed as growth inhibition after 48 hrs by sulforhodamine B assay; assay type: functional; settings: RXF 393, 48 h
Malme-3M = assay: Antiproliferative activity against human MALME-3M cells assessed as growth inhibition after 48 hrs by sulforhodamine B assay; assay type: functional
A549 = assay: Antiproliferative activity against human A549/ATCC cells assessed as growth inhibition after 48 hrs by sulforhodamine B assay; assay type: functional; settings: A549, 48 h
MCF7 = assay: Antiproliferative activity against human MCF7 cells assessed as growth inhibition after 48 hrs by sulforhodamine B assay; assay type: functional; settings: MCF7, 48 h
MDA-MB-468 = assay: Antiproliferative activity against human MDA-MB-468 cells assessed as growth inhibition after 48 hrs by sulforhodamine B assay; assay type: functional; settings: MDA-MB-468, 48 h
PC-3 = assay: Antiproliferative activity against human PC3 cells assessed as growth inhibition after 48 hrs by sulforhodamine B assay; assay type: functional; settings: PC-3, 48 h
[7] = Antioxidant activity assessed as hydroxyl radical scavenging activity after 1 hr by salicylic acid-based Fenton reaction assay; assay type: functional
NCI-H23 = assay: Antiproliferative activity against human NCI-H23 cells assessed as growth inhibition after 48 hrs by sulforhodamine B assay; assay type: functional; settings: NCI-H23, 48 h
[8] = tested on: Panel NCI-60 (60 carcinoma cell lines); assay: Antiproliferative activity against human NCI60 cells assessed as growth inhibition after 48 hrs by sulforhodamine B assay; assay type: functional
UO-31 = assay: Antiproliferative activity against human UO31 cells assessed as growth inhibition after 48 hrs by sulforhodamine B assay; assay type: functional; settings: UO-31, 48 h
HCT-116 [9] = assay: Induction of apoptosis in human HCT116 cells assessed as increase in p53 mRNA expression at 100 nM after 6 hrs hrs by SYBR green dye-based qRT-PCR analysis relative to control; assay type: functional
MDA-MB-231 = assay: Antiproliferative activity against human MDA-MB-231/ATCC cells assessed as growth inhibition after 48 hrs by sulforhodamine B assay; assay type: functional; settings: MDA-MB-231, 48 h
MDA-MB-435 = assay: Antiproliferative activity against human MDA-MB-435 cells assessed as growth inhibition after 48 hrs by sulforhodamine B assay; assay type: functional; settings: MDA-MB-435, 48 h
HCT-116 [10] = assay: […] in CDK1 mRNA expression in human HCT116 cells at 100 nM after 6 hrs hrs by SYBR green dye-based qRT-PCR analysis relative to control; assay type: functional
COLO 205 = assay: Antiproliferative activity against human COLO205 cells assessed as growth inhibition after 48 hrs by sulforhodamine B assay; assay type: functional; settings: COLO 205, 48 h

N=C(N)c1ccc(-c2ccc(-c3ccc(F)cc3)o2)o1
hemolysis at 0.5 h, 10000 µM [1]: 90% | GI50 (TK-10): 1.55 µM | GI50 (SK-OV-3): 2.32 µM | GI50 (EKVX): 1.35 µM | GI50 (SNB-75): 1.55 µM | GI50 (MOLT-4): 1.6 µM | GI50 (OVCAR-3): 1.84 µM | GI50 (HOP-62): 1.6 µM | GI50 (DU-145): 1.8 µM | GI50 (786-0): 1.66 µM | GI50 (SF-539): 1.63 µM | GI50 (SN12C): 1.8 µM | GI50 (OVCAR-8): 1.98 µM | GI50 (OVCAR-5): 1.66 µM | GI50 (OVCAR-4): 1.62 µM | inhibition [2]: 9.9% | inhibition [3]: 13.2% | GI50 (LOX IMVI): 1.55 µM | GI50 (NCI-H460): 1.76 µM | GI50 (UACC-257): 1.98 µM | fold change (FC) (HCT-116 [4]): 3.88 | GI50 (HCT-15): 0.63 µM | GI50 (CAKI-1): 1.71 µM | Activity [5]: Active | hemolysis at 0.5 h, 5000 µM [6]: 66.3% | GI50 (BT-549): 2.27 µM | GI50 (SF-268): 1.92 µM | GI50 (RXF 393): 1.6 µM | GI50 (Malme-3M): 1.63 µM | GI50 (A549): 1.65 µM | GI50 (MCF7): 0.68 µM | GI50 (MDA-MB-468): 1.36 µM | GI50 (PC-3): 1.22 µM | Activity [7]: Active | GI50 (NCI-H23): 1.93 µM | GI50 [8]: 1.47 µM | LC50 [8]: 9.55 µM | TGI [8]: 3.46 µM | GI50 (UO-31): 1.43 µM | fold change (FC) (HCT-116 [9]): 0.96 | GI50 (MDA-MB-231): 1.57 µM | GI50 (MDA-MB-435): 0.35 µM | fold change (FC) (HCT-116 [10]): 1.07 | GI50 (COLO 205): 1.6 µM

N=C(N)c1ccc(-c2ccc(-c3ccc(F)cc3)s2)s1
hemolysis at 0.5 h, 10000 µM [1]: 93.3% | GI50 (TK-10): 1.72 µM | GI50 (SK-OV-3): 1.8 µM | GI50 (EKVX): 1.47 µM | GI50 (SNB-75): 1.48 µM | GI50 (MOLT-4): 1.52 µM | GI50 (OVCAR-3): 1.78 µM | GI50 (HOP-62): 1.64 µM | GI50 (DU-145): 1.72 µM | GI50 (786-0): 1.81 µM | GI50 (SF-539): 1.67 µM | GI50 (SN12C): 1.98 µM | GI50 (OVCAR-8): 2.23 µM | GI50 (OVCAR-5): 1.7 µM | GI50 (OVCAR-4): 1.68 µM | inhibition [2]: 44.8% | inhibition [3]: 49.7% | GI50 (LOX IMVI): 1.62 µM | GI50 (NCI-H460): 1.89 µM | GI50 (UACC-257): 2.19 µM | fold change (FC) (HCT-116 [4]): 3.71 | GI50 (HCT-15): 1.34 µM | GI50 (CAKI-1): 1.68 µM | Activity [5]: Active | hemolysis at 0.5 h, 5000 µM [6]: 59.7% | GI50 (BT-549): 1.89 µM | GI50 (SF-268): 1.69 µM | GI50 (RXF 393): 1.75 µM | GI50 (Malme-3M): 1.81 µM | GI50 (A549): 1.93 µM | GI50 (MCF7): 1.15 µM | GI50 (MDA-MB-468): 2.04 µM | GI50 (PC-3): 1.77 µM | Activity [7]: Active | GI50 (NCI-H23): 1.8 µM | GI50 [8]: 1.77 µM | LC50 [8]: 12 µM | TGI [8]: 3.54 µM | GI50 (UO-31): 1.77 µM | fold change (FC) (HCT-116 [9]): 1.06 | GI50 (MDA-MB-231): 1.74 µM | GI50 (MDA-MB-435): 1.59 µM | fold change (FC) (HCT-116 [10]): 0.89 | GI50 (COLO 205): 1.32 µM
